Consider 3 compounds from US20240117357A1, “REGULATION OF METABOLISM AND OBESITY BY MITOCHONDRIAL MUL1 E3 UBIQUITIN LIGASE” (University of Central Florida Research Foundation, Inc., priority 2022, published 2024).

What all share (type): cell-based, human
Data set [1] deals with HEK293 Akt2(−/−) cells. As to the kind of experiment: Glycolytic Stress Test (ECAR, Seahorse XFe24). The following applies: DMOG 100 μM for 4 hours. The method, then: (§1) To monitor glycolysis in the cell lines, the Glycolysis Stress Test was performed using a XFe24 Extracellular Flux Analyzer (Agilent Technologies). HEK293 WT, MUL1(−/−) and Akt2(−/−) cells were seeded in triplicates on poly-lysine D-coated XFe24 microplates at a density of 60,000 cells per well in assay medium (XF DMEM pH 7.4 containing 2 mM glutamine and 1 mM sodium pyruvate without glucose) for one hour in a CO2-free incubator. Extracellular acidification rate (ECAR) was measured under basal conditions and again after sequential injections of glucose (10 mM) in port A, ATP synthase inhibitor oligomycin (1.5 μM) in port B, and the glycolysis inhibitor 2-deoxyglucose (2-DG) (300 mM) in port C. Basal glycolysis was assessed by recording three measurements, following the addition of each compound by a 3-2-3 mix/measurement cycle. Glycolysis is the ECAR after the addition of glucose. Glycolytic capacity is the increase in ECAR after the injection of oligomycin following glucose. Glycolytic reserve is the difference between glycolytic capacity and glycolysis. Data analysis was performed using Report Generators software for Glycolysis Stress Test (Agilent Technologies).

For data set [2], the system named is HEK293 WT cells. As to the kind of experiment: Glycolytic Stress Test (ECAR, Seahorse XFe24). To be noted: DMOG 100 μM for 4 hours. The method, then:
as §1

The subject of data set [3] is HEK293 Akt2(−/−) cells. As to the kind of experiment: 13C-NMR isotopomer metabolic flux analysis ([U-13C]glucose, tcaCALC). The method, then:
For NMR analysis, approximately 20×10^6 HEK293 WT, MUL1(−/−), or Akt2(−/−) cells were grown to confluency following treatment with perifosine, or chetomin inhibitors as well as with the HIF-1α activator DMOG and DMSO was used as vehicle control. Freshly prepared [U-^13C]glucose tracer containing medium (glucose free DMEM with 10% dialyzed FBS and 15 mM [U-^13C]glucose) was added to the cells for 6 hours at 37° C. Cells were scraped from the plates, washed twice with cold PBS, and immediately snap frozen in liquid nitrogen (161).
Cell pellets were bead-homogenized in 1 ml acetonitrile:isopropanol:water (3:3:2, v:v:v), centrifuged at 10,000×g for 15 min at 4° C. and the supernatant removed and dried in a speedvac. Dried cell extracts of each sample were re-suspended in 0.5 ml of acetonitrile: water (1:1, v:v) solution, vortexed, and centrifuged for 15 min at 10,000×g at 4° C. The supernatant was transferred to a new tube and dried in a speedvac The dried extract of each cell pellet was re-suspended in phosphate buffer (prepared in Deuterium oxide (D2O)) for NMR analysis. […]
^1H-NMR spectra were collected on an 800 MHz NMR, equipped with a 5 mm TXI CryoProbe and Avance III console (Bruker Biospin), using TopSpin software (version 3.6.3). […] The conventional ^1H-decoupled ^13C-NMR spectra were acquired for each sample at 150.13 MHz, using a ^13C-optimized 1.5 mm high temperature superconducting (HTS) probe on an Agilent NMR system with the magnetic field strength of 14 tesla. ^13C-NMR spectra were recorded using an acquisition time (AQ) of 1.5 sec, relaxation delay (dl) of 1.5 sec, flip angle of 45°, acquired size (TD) of 54 k with the spectral width of 250 ppm (Ramaswamy et al., 2013). […]
The positional ^13C-isotopomer distribution pattern of glutamate was determined by ^13C-NMR. ^13C-NMR resonances of various isotopomers of glutamate are identified from the ^13C-^13C J-coupling constants and quantified by line fitting to the glutamate resonances at C2, C3, C4, and C5 positions. […]

Data set [4] has as its system HEK293 MUL1(−/−) cells. The data set is described as follows: Glycolytic Stress Test (ECAR, Seahorse XFe24). To be noted: 2.5 μM perifosine or 500 nM chetomin for 4 hours. The method, then:
as §1

The subject of data set [5] is HEK293 MUL1(−/−) cells. The data set is described as follows: Mitochondrial Stress Test (OCR, Seahorse XFe24). The following applies: for oxygen consumption rate (OCR): HEK293 MUL1(−/−) cells, 2.5 μM perifosine or 500 nM chetomin for 4 hours; for mitochondrial respiration: at the concentration used (2.5 μM perifosine, 500 nM chetomin, 4 hours). The method, then: Mitochondrial stress assay was performed using an XFe24 Extracellular Flux Analyzer (Agilent Technologies) following the workflow provided by the manufacturer's instructions. Briefly, for Oxygen Consumption Rate (OCR) measurements, HEK293 WT and MUL1(−/−) cells were seeded in triplicates on poly-lysine D-coated XF24 microplates at a density of approximately 60,000 cells per well in assay medium (XF DMEM medium pH 7.4 supplemented with 10 mM glucose, 2 mM glutamine, and 1 mM pyruvate), followed by incubation at 37° C. in CO2-free incubator for 60 minutes. Three baseline measurements were recorded before the injection of the following compounds: 1.5 μM of oligomycin in port A, 1.0 μM of FCCP in port B and 0.5 μM rotenone/antimycin in port C. Data analysis was performed using Cell Mito Stress Test Report Generators software (Agilent Technologies).

Data set [6] concerns HIF-1α. The data set is described as follows: Western blot of HIF-1α target protein GLUT1. The following applies: 500 nM chetomin for 4 hours. The method, then:
(§2) Control (untreated) as well as cells treated with perifosine, chetomin or DMOG were lysed using a Triton X-100 based lysis buffer (1% Triton X-100, 10% glycerol, 150 mM NaCl, 20 mM Tris (pH 7.5), 2 mM EDTA) in the presence of protease inhibitors (Thermo Fisher Scientific). Approximately 40 μg of whole cell extract was resuspended in SDS sample buffer, boiled for 4 minutes, and analyzed by SDS-PAGE (12% or 15% gels), then transferred onto PVDF membranes (Genesee) using a semi-dry cell transfer blot (Bio-Rad). Nonfat dry milk (4%) or 5% BSA (for Akt2 and phospho-specific antibodies) in TBST buffer (25 mM Tris-HCl, pH 8.0, 125 mM NaCl, 0.1% Tween 20) were used to block nonspecific binding of the membrane. The membranes were incubated with the indicated primary antibodies: HIF-1α (Bioss Antibodies, 1:2,000), AKT (pan), Akt1, Akt2, Akt3, phospho-Akt-T308, phospho-GSK-3β-S9, ULK1 (Cell Signaling Technology 1:2,000), GLUT1, (ABclonal 1:2,000), MFN2, and β-actin (Santa Cruz Biotechnology, 1:3,000). MUL1 and UBXN7 rabbit polyclonal antibodies were homegrown and used at 1:5,000 dilution. Secondary peroxidase-conjugated goat anti-rabbit or goat anti-mouse antibodies (Jackson ImmunoResearch) were used at 1:10,000 dilution. The membrane was visualized by enhanced chemiluminescence (ECL) (Thermo Fisher Scientific).
A general note: A western blot detects proteins with antibodies after separation by electrophoresis.

Data set [7] has as its system Akt2. The data set is described as follows: Western blot of Akt2 target P-GSK-3β S9. To be noted: 2.5 μM perifosine for 4 hours. The method, then:
as §2

Regarding `COC(=O)CNC(=O)C(=O)OC` [DMOG, dimethyloxalyglycine], the “glycolysis and glycolytic capacity” value in data set [1] is “small but significant increase”; in data set [2], “unremarkable”. Also, the YPC flux result in data set [3] (Akt2(−/−)+DMOG cells compared with HEK293 WT and MUL1(−/−) cells) was “elevated above WT, but fell short of reaching MUL1(−/−) levels”. For the same compound, the PK flux result in data set [3] (Akt2(−/−)+DMOG cells compared with HEK293 WT cells) is on record as “partially restored with DMOG, but did not reach the WT levels”. In addition, in data set [3] (Akt2(−/−)+DMOG vs Akt2(−/−) cells, relative to citrate synthase flux of 1), the “PK, YPC, and YS fluxes” value was “significantly increased”.
For `CN1C(=O)[C@]2(Cc3cn([C@]45C[C@@]67SS[C@@](CO)(C(=O)N6[C@H]4Nc4ccccc45)N(C)C7=O)c4ccccc34)SS[C@@]1(CO)C(=O)N2C` [chetomin], the “ECAR and glycolysis (glycolytic function)” value in data set [4] is recorded as “very potent inhibitor of the mitochondrial glycolytic function”. In addition, in data set [5], the “oxygen consumption rate (OCR)” value is on record as “further reduced” and the mitochondrial respiration entry was “potent inhibitors of mitochondrial respiration”. For the same compound, the “expression of GLUT1” value in data set [6] is recorded as “significantly reduces”.
With `CCCCCCCCCCCCCCCCCCOP(=O)([O-])OC1CC[N+](C)(C)CC1` [perifosine], the “ECAR and glycolysis (glycolytic function)” value in data set [4] is “reduced ECAR and glycolysis to a level lower than the one present in HEK293 WT cells”. Besides, in data set [5], the “oxygen consumption rate (OCR)” value is “further reduced” and the mitochondrial respiration result is given as “potent inhibitors of mitochondrial respiration”. Also, in data set [7], the “Akt2 kinase activity (P-GSK-3β S9)” value is “inhibits”.
